This note sets out measurements from US20200404919A1, “USE OF HETEROARYL-TRIAZOLE AND HETEROARYL-TETRAZOLE COMPOUNDS AS PESTICIDES IN PLANT PROTECTION” (Bayer Aktiengesellschaft, priority 2018, published 2020).

Holding throughout (type): in vivo
One assay concerns Phaedon cochleariae. Nature of the assay: Phaedon cochleariae - spray test. Conditions: in Brassica rapa, foliar, 168 h, read-out: mortality in %. The essentials: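 Mortality read 7 days after infestation; 100% means every larva dead, 0% none. Larvae placed on dried Chinese cabbage leaf disks previously sprayed with compound preparation diluted in emulsifier-containing water (1000 ppm).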

The subject of the next assay is Spodoptera frugiperda. Briefly: Spodoptera frugiperda - spray test. To be noted: in Zea mays, 168 h, read-out: mortality in %. In outline: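 Read-out: % larval mortality at day 7, where 100% means all killed and 0% none killed. Compound diluted in water with 1000 ppm emulsifier, sprayed onto Zea mays leaf sections; dried sections then infested with S. frugiperda larvae.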

The test system of assay [1] is Myzus persicae. Nature of the assay: Myzus persicae - oral test. Conditions: 120 h, read-out: mortality in %. The essentials:
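Scoring at day 5 gives percent mortality (0% none, 100% all killed) of a mixed aphid population that sucked compound preparation in sugar-supplemented IPL41 medium through a parafilm seal.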

The subject of assay [2] is Nezara viridula. Briefly: Nezara viridula - spray test 1. To be noted: in Hordeum vulgare, 96 h, read-out: mortality in %. The essentials: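 Percent kill of Nezara viridula larvae was read 4 days after spraying infested barley (Hordeum vulgare). The spray was the compound concentrate diluted in 1000 ppm emulsifier-containing water.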
For assay [3], the system named is Nilaparvata lugens. Nature of the assay: Nilaparvata lugens - spray test 2. To be noted: 96 h, rice plants, larvae, after 4 days. The protocol:
Nilaparvata lugens —Spray Test 2
To produce a suitable preparation of active compound, 1 part by weight of active compound is mixed with the stated amount of solvents and is diluted with water, containing an emulsifier concentration of 1000 ppm, to the desired concentration. Further test concentrations are prepared by dilution with emulsifier containing water. Ammonium salt and/or penetration enhancer in a dosage of 1000 ppm are added to the desired concentration if necessary.
Rice plants (Oryza sativa) are treated by being sprayed with the desired concentration of the active compound and are infested with larvae of the brown planthopper (Nilaparvata lugens).
After 4 days mortality in % is determined. 100% means all planthoppers have been killed and 0% means none of the planthoppers have been killed.

Assay [4] deals with Nezara viridula. Nature of the assay: Nezara viridula - spray test 2. To be noted: 96 h, barley plants, larvae, after 4 days. The protocol:
Nezara viridula—Spray Test 2
To produce a suitable preparation of active compound, 1 part by weight of active compound is mixed with the stated amount of solvent, and the concentrate is diluted with water, containing an emulsifier concentration of 1000 ppm, to the desired concentration. Ammonium salt and/or penetration enhancer in a dosage of 1000 ppm are added to the desired concentration if necessary.
Barley plants (Hordeum vulgare) infested with larvae of the southern green stink bug (Nezara viridula) are sprayed with a test solution containing the desired concentration of the active ingredient.
After 4 days mortality in % is determined. 100% means all the stink bugs have been killed; 0% means none of the stink bugs have been killed.

The test system of another assay is Diabrotica balteata. Nature of the assay: Diabrotica balteata - spray test. Conditions: 168 h, 160 μg/well, germinated wheat seeds, larvae, after 7 days, read-out: efficacy in %. In outline:
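Efficacy (%) read 7 days after infesting treated seedlings with 10-20 banded cucumber beetle larvae, 100% meaning growth as in uninfected untreated control and 0% no growth. Test solutions in water containing 1000 ppm emulsifier were sprayed onto wheat seeds germinated for 1 day on agar.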

Another assay relates to Aphis gossypii. Briefly: Aphis gossypii - oral test. To be noted: 120 h, read-out: mortality in %. In outline:
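Oral exposure: compound solution, prepared from acetone concentrate diluted in water, combined with sugar-supplemented IPL41 medium and sealed under parafilm for aphid feeding. Percent kill recorded at day 5.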

Assay [5] has as its system Nilaparvata lugens. Briefly: Nilaparvata lugens - spray test 1. Conditions: in Oryza sativa, 96 h, read-out: mortality in %, 500 g/ha, rice plants, after 4 days. In outline:
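Mortality (%) was scored 4 days after infesting treated plants with brown planthopper, where 100% means all insects were killed. Compound was applied by spraying rice (Oryza sativa) at the desired concentration, diluted in water carrying 1000 ppm emulsifier.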

The test system of assay [6] is Myzus persicae. Nature of the assay: Myzus persicae - spray test. Conditions: foliar, 120 h, Chinese cabbage leaf disks, all instars, after 5 days. As for the experimental part:
Myzus persicae—Spray Test
(§1) To produce a suitable preparation of active compound, 1 part by weight of active compound is mixed with the stated amount of solvents and is diluted with water, containing an emulsifier concentration of 1000 ppm, to the desired concentration. Further test concentrations are prepared by dilution with emulsifier containing water.
Chinese cabbage (Brassica pekinensis) leaf disks infected with all instars of the green peach aphid (Myzus persicae), are sprayed with a preparation of the active ingredient of the desired concentration.
After 5 days mortality in % is determined. 100% means all aphids have been killed and 0% means none of the aphids have been killed.

The subject of a further assay is Tetranychus urticae. Nature of the assay: Tetranychus urticae - spray test OP-resistant. Conditions: foliar, 144 h, French bean leaf disks, all instars, after 6 days. The protocol: Tetranychus urticae—Spray Test OP-Resistant
as §1
French bean (Phaseolus vulgaris) leaf disks infected with all instars of the two spotted spidermite (Tetranychus urticae), are sprayed with a preparation of the active ingredient of the desired concentration.
After 6 days mortality in % is determined. 100% means all spider mites have been killed and 0% means none of the spider mites have been killed.

Assay [7] concerns Aedes aegypti strain MONHEIM. Briefly: Aedes test (AEDSAE surface treatment & contact assay). Conditions: 30 minutes exposure, 24 hours after contact, read-out: efficacy (mortality in percent); for mortality at 4 mg/m2: surface concentration 4 mg/m^2, glazed tile; for mortality at 20 mg/m2: surface concentration 20 mg/m^2, glazed tile; for mortality at 100 mg/m2: surface concentration 100 mg/m^2, glazed tile. In outline:
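Compound in acetone plus 2000 ppm RME applied to glazed tile; after acetone evaporation, adult mosquitoes held on dried surface for 30 minutes. Percent mortality scored 24 hours after contact.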

Assay [8] has as its system Musca domestica strain WHO-N. Briefly: Musca domestica test (MUSCDO surface treatment & contact assay). Conditions: 30 minutes exposure, 24 hours after contact, read-out: efficacy (mortality in percent). In outline:
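Compound in acetone with 2000 ppm rapeseed oil methyl ester applied to glazed tile; after acetone evaporation, adult Musca domestica WHO-N flies exposed on dried surface for 30 minutes. Mortality (%) assessed 24 hours after contact.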

In assay [9] the test system is Anopheles funestus strain FUMOZ-R. Briefly: Anopheles test (ANPHFU surface treatment & contact assay). Conditions: 30 minutes exposure, 24 hours after contact, read-out: efficacy (mortality in percent); for mortality at 4 mg/m2: surface concentration 4 mg/m^2, glazed tile; for mortality at 20 mg/m2: surface concentration 20 mg/m^2, glazed tile; for mortality at 100 mg/m2: surface concentration 100 mg/m^2, glazed tile. An excerpt:
Anopheles Test (ANPHFU Surface Treatment & Contact Assay)
Solvent: Acetone+2000 ppm rapeseed oil methyl ester (RME)
In order to produce a sufficient, active ingredient containing solution it is necessary to solve the test-compound in an acetone/RME solvent mixture. This solution is pipetted onto a glazed tile and after evaporation of the acetone, adult mosquitoes of the species Anopheles funestus strain FUMOZ-R (Hunt et al., Med Vet Entomol. 2005 Sep. 19(3):271-5) are placed onto the dried surface. The exposure time is 30 minutes.
Mortality in percent (%) is determined 24 hours after contact to the treated surface. 100% mortality means that all test-insects are dead, whereas 0% means that not a single insect died.

The subject of another assay is Culex quinquefasciatus. Briefly: Culex test (CULXFAS surface treatment & contact assay). Conditions: 30 minutes exposure, 24 hours after contact, read-out: efficacy (mortality in percent); for mortality at 4 mg/m2: surface concentration 4 mg/m^2, glazed tile; for mortality at 20 mg/m2: surface concentration 20 mg/m^2, glazed tile; for mortality at 100 mg/m2: surface concentration 100 mg/m^2, glazed tile. The essentials:
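Test compound dissolved in acetone + 2000 ppm rapeseed oil methyl ester, applied to glazed tile and acetone evaporated; adult mosquitoes exposed on dried surface for 30 minutes. Mortality (%) scored 24 hours after contact; 100% = all insects dead, 0% = none dead.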

Another assay relates to Meloidogyne incognita. Nature of the assay: Meloidogyne incognita - test. To be noted: 336 h, salad seedlings in sand, after 14 days, read-out: nematicidal activity (percentage of gall formation). The essentials: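 Compound taken up in acetone and diluted with water, then applied to sand with M. incognita eggs and larvae plus salad seeds. Gall formation on roots scored after 14 days: 100% means no galls, 0% equals untreated control.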

With `CC(NC(=O)c1cc(Cl)cc(C(F)(F)F)c1)c1ncnn1-c1ncccn1` (centres unmarked) [Compound I-76], the mortality at 500 g/ha with Phaedon cochleariae, in the assay on Spodoptera frugiperda, in the assay on Nezara viridula [2], with Nilaparvata lugens [3], in the assay on Nezara viridula [4] and in the assay on Nilaparvata lugens [5] was 100% in each case. Besides, in the assay with Myzus persicae [1], the mortality at 20 ppm amounted to 100%. Further, in the assay with Diabrotica balteata, the pest or weed control at 160 µg/disc, 160 µg/well came to 100%. Besides, in the assay on Aphis gossypii, the mortality at 100 ppm came out at 100%.

For the compound `C[C@H](NC(=O)c1cncc(Br)c1)c1ncnn1-c1ncccn1` [Compound I-134], the mortality at 500 g/ha in the assay on Nezara viridula [2] is 100%; in the assay with Myzus persicae [6] it was 90%; with Nilaparvata lugens [5], 100%. For the same compound, the pest or weed control at 160 µg/disc, 160 µg/well in the assay on Diabrotica balteata was 100%.

As to `CC(c1ncnn1-c1ncccn1)N(CC(F)F)C(=O)c1cccc(C(F)(F)F)c1` (centres unmarked) [Compound I-123], the mortality at 500 g/ha with Spodoptera frugiperda came out at 100%; in the assay on Nezara viridula [2] it was 100%; with Myzus persicae [6], 90%; with Tetranychus urticae, 100%; in the assay with Nilaparvata lugens [5] it was 100%.

In the case of `C[C@H](NC(=O)c1cc(Cl)cc(C(F)(F)F)c1)c1ncnn1-c1ncccn1` [Compound I-113, 3-chloro-N-[(1S)-1-(2-pyrimidin-2-yl-1,2,4-triazol-3-yl)ethyl]-5-(trifluoromethyl)benzamide], the mortality at 500 g/ha in the assay with Phaedon cochleariae, in the assay with Spodoptera frugiperda, in the assay on Nezara viridula [2] and in the assay on Nilaparvata lugens [5] was 100% each time. The mortality at 4 mg/m2 in assay [7] lay in the range of 80 to 100%; in [8] (surface concentration 4 mg/m^2, glazed tile), 80 to 100%; in assay [9] it was 80 to 100%; in the assay with Culex quinquefasciatus it was 80 to 100%. Further, the mortality at 20 mg/m2 fell in the range of 80 to 100% in assay [7]; 80 to 100% in assay [8] (surface concentration 20 mg/m^2, glazed tile); 80 to 100% in [9]; 80 to 100% with Culex quinquefasciatus. In addition, the mortality at 100 mg/m2 (in assay [7]; in assay [9]; in the assay with Culex quinquefasciatus) was 80 to 100% throughout. In the assay on Myzus persicae [1], the mortality at 20 ppm stood at 100%. Moreover, the pest or weed control at 160 µg/disc, 160 µg/well in the assay on Diabrotica balteata came out at 100%. Also, the mortality at 100 ppm in the assay with Aphis gossypii is 100%.

Turning to `CC(c1ncnn1-c1ncccn1)N(CC1CC1)C(=O)c1cc(Cl)cc(C(F)(F)F)c1` (centres unmarked) [Compound I-40, 3-chloro-N-(cyclopropylmethyl)-N-[1-(2-pyrimidin-2-yl-1,2,4-triazol-3-yl)ethyl]-5-(trifluoromethyl)benzamide], the mortality at 500 g/ha in the assay on Phaedon cochleariae turned out to be 100%; in the assay with Spodoptera frugiperda, 100%; with Nezara viridula [2], 100%; with Myzus persicae [6], 90%; in the assay on Nilaparvata lugens [3] it was 100%; with Nezara viridula [4], 100%. The mortality at 500 g/ha in the assay on Nilaparvata lugens [5] amounted to 100%. Further, the mortality at 20 ppm in the assay on Myzus persicae [1] was 100%. In addition, the pest or weed control at 160 µg/disc, 160 µg/well in the assay on Diabrotica balteata was 100%. Further, the mortality at 100 ppm in the assay on Aphis gossypii was determined as 100%.

Regarding `CC(NC(=O)c1cc(Cl)cc(Cl)c1)c1ncnn1-c1ncccn1` (centres unmarked) [Compound I-124], the mortality at 500 g/ha amounted to 100% with Spodoptera frugiperda, 100% in the assay with Nezara viridula [2], 90% in the assay with Myzus persicae [6] and 90% with Nilaparvata lugens [5].

On to `CC(c1ncnn1-c1ncccn1)N(CC#N)C(=O)c1cc(Cl)cc(C(F)(F)F)c1` (centres unmarked) [Compound I-96], for which the mortality at 500 g/ha with Spodoptera frugiperda turned out to be 100%; in the assay on Nezara viridula [2] it was 100%; with Myzus persicae [6], 90%; with Tetranychus urticae, 90%; with Nilaparvata lugens [5] it was 100%.

`C[C@@H](c1ncnn1-c1ncccn1)N(CC1CC1)C(=O)c1cc(Cl)cc(C(F)(F)F)c1` [Compound I-93, 3-chloro-N-(cyclopropylmethyl)-N-[(1S)-1-(2-pyrimidin-2-yl-1,2,4-triazol-3-yl)ethyl]-5-(trifluoromethyl)benzamide]: the mortality at 500 g/ha with Phaedon cochleariae, in the assay on Spodoptera frugiperda, in the assay with Myzus persicae [6], in the assay with Nilaparvata lugens [3], in the assay on Nezara viridula [4] and in the assay with Nilaparvata lugens [5] was 100% in each case. Besides, the mortality at 4 mg/m2 (in [7]; in assay [9]; in the assay with Culex quinquefasciatus) was 80 to 100% in each case. Further, the mortality at 20 mg/m2 (in assay [7]; in assay [9]; in the assay on Culex quinquefasciatus) was 80 to 100% each time. Besides, the mortality at 100 mg/m2 (in assay [7]; in [9]; with Culex quinquefasciatus) was 80 to 100% throughout. In addition, the mortality at 20 ppm in the assay on Myzus persicae [1] stood at 100%. Moreover, the pest or weed control at 20 ppm with Meloidogyne incognita was found to be 100%. Moreover, in the assay on Diabrotica balteata, the pest or weed control at 160 µg/disc, 160 µg/well amounted to 100%. In addition, in the assay with Aphis gossypii, the mortality at 100 ppm was determined as 100%.
